Source: US20140090094A1, “MODULATORS OF SLC22A7” (BAYER INTELLECTUAL PROPERTY GmbH, priority 2011, published 2014)

How the values were obtained:
OAT2r [1] = target: T1, OAT2r (Rattus norvegicus, UniProt Q5RLM2); assay: 1 min uptake into 293 cells expressing OAT2 from rat; format: cell-based; settings: 1 min uptake, 0.1 μmol/l radiotracer or 10 μmol/l unlabeled compound;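 further: uptake at 37 °C, read by liquid scintillation counting or LC-ESI-MS/MS, carrier-mediated part as induced-minus-uninduced expression difference corrected for baseline content, protein by BCA assay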
T1 construct: expressed in transfected cells
T1 sequence (Q5RLM2 1-535): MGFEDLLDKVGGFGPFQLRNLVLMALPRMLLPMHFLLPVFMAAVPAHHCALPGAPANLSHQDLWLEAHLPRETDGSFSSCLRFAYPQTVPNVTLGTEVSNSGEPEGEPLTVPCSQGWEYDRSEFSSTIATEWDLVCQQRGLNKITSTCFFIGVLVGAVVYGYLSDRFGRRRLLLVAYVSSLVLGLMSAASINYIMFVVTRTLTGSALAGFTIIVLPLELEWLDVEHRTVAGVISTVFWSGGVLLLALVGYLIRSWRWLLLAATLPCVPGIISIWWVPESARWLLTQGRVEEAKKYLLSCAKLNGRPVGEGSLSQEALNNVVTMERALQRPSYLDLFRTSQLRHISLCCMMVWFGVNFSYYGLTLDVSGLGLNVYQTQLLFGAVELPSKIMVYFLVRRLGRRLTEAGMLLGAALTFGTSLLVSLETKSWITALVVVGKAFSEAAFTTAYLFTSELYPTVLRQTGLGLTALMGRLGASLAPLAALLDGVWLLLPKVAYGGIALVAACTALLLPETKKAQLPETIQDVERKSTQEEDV
Procedure: (§1) Cells were used for uptake experiments at a confluence of at least 70%. Uptake was measured at 37° C. […] After preincubation for at least 20 minutes in 4 ml of uptake buffer, the buffer was replaced with 2 ml of substrate in uptake buffer. The total substrate concentration if not indicated otherwise was 0.1 μmol/l for radiotracer assays and 10 μmol/l for unlabeled compounds. Incubation was stopped after 1 min by rinsing the cells four times each with 4 ml ice-cold uptake buffer. Radioactivity was determined, after cell lysis with 0.1% v/v Triton X-100 in 5 mmol/l TRIS-HCl pH 7.4, by liquid scintillation counting. For LCelectrospray ionization-MS/MS analysis, cells were lysed with methanol and stored at −20° C.
(§2) After centrifugation (1 min, 16000×g, 20° C.) of thawed lysates, 100 μl of the supernatant was mixed with either 10 μl unlabeled MPP+ iodide (0.5 ng/μl) or biphenyl-4-carboxylic acid (Sigma-Aldrich) as internal standard. […] Atmospheric pressure ionization with positive or negative electrospray was used. For quantification (scan time 150 ms), the optimal collision energy for argon-induced fragmentation in the second quadrupole was determined for each analyte. […] Linear calibration curves were constructed from at least six standards which were prepared using control cell lysates as solvent. Sample analyte content was calculated from the analyte response ratio and the slope of the calibration curve, obtained by linear regression. With LC-MS quantitation, solute content of cell lysates was determined for 4 conditions (paired dishes, incubation time 1 min): a) transporter expression on, uptake buffer; b) expression off, uptake buffer; c) expression on, substrate in uptake buffer; d) expression off, substrate in uptake buffer. Acute uptake mediated by heterologously expressed carrier was then calculated as (c−a)−(d−b). This approach takes into account endogenous solute content and non-specific uptake. Protein was measured by the BCA assay (Pierce) with bovine serum albumin as standard. The protein content of MS samples was estimated from 3 matched cell dishes.

OAT2r [2] = target: T1, OAT2r; assay: 24 h accumulation in lysates of OAT2r-expressing versus control cells (LC-MS/MS); format: cell-based; settings: for increase in OAT2r cell lysates versus control cells (factor f): 24 h incubation, compound at 100 μmol/l
Procedure: A substrate search by LC-MS difference shading was performed with 293 cells stably transfected to express OAT2 from rat. […] To verify that trigonelline is directly transported by OAT2 and not just increased indirectly, initial rates of uptake (1 min, 37° C.) of trigonelline (10 μmol/l) were determined by LC-MS/MS.
With trigonelline as substrate lead, compounds wholly or partly related in structure were analyzed for transport by OAT2 from rat.
After centrifugation (1 min, 16000×g, 20° C.) of thawed lysates, 100 μl of the supernatant was mixed with either 10 μl unlabeled MPP+ iodide (0.5 ng/μl) or biphenyl-4-carboxylic acid (Sigma-Aldrich) as internal standard. Of this mixture, […] were analyzed by LCMS/MS on a triple quadrupole mass spectrometer (4000 Q TRAP, Applied Biosystems, Darmstadt, Germany). […] Atmospheric pressure ionization with positive or negative electrospray was used. For quantification (scan time 150 ms), the optimal collision energy for argon-induced fragmentation in the second quadrupole was determined for each analyte. […] Linear calibration curves were constructed from at least six standards which were prepared using control cell lysates as solvent. Sample analyte content was calculated from the analyte response ratio and the slope of the calibration curve, obtained by linear regression. With LC-MS quantitation, solute content of cell lysates was determined for 4 conditions ([…]): a) transporter expression on, uptake buffer; b) expression off, uptake buffer; c) expression on, substrate in uptake buffer; d) expression off, substrate in uptake buffer. Acute uptake mediated by heterologously expressed carrier was then calculated as (c−a)−(d−b). This approach takes into account endogenous solute content and non-specific uptake. Protein was measured by the BCA assay (Pierce) with bovine serum albumin as standard. The protein content of MS samples was estimated from 3 matched cell dishes.

OAT2h = target: T2, OAT2h (Homo sapiens, UniProt Q9Y694); assay: 1 min uptake into 293 cells expressing OAT2 from human; format: cell-based; settings: radiotracer
T2 construct: expressed in transfected cells; host or cells: 293 cells (HEK-293), pEBTetD/OAT2h, doxycycline-inducible
T2 sequence (Q9Y694 1-546 isoform Q9Y694-2): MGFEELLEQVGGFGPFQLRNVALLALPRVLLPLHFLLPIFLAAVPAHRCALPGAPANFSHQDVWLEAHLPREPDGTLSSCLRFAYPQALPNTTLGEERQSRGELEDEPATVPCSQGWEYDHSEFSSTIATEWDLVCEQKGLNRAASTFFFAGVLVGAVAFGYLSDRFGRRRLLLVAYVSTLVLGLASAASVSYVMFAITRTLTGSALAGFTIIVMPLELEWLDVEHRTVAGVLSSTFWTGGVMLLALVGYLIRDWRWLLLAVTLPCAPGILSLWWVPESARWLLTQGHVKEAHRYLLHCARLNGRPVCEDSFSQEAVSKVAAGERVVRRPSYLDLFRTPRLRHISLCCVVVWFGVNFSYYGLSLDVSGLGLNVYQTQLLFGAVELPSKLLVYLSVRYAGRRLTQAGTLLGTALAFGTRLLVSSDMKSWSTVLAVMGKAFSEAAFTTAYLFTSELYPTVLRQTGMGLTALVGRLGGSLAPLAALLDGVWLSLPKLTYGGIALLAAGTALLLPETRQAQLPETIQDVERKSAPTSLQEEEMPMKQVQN
Procedure: as §1, §2

OAT2r [3] = target: T1, OAT2r; assay: trans-stimulation of efflux of 3H-orotic acid via OAT2r; format: cell-based; settings: 1 mmol/l compound in uptake buffer, 1 min, preloaded cells
[4] = substrate: O=C(O)c1cc(=O)[nH]c(=O)[nH]1; assay: cells, lysate or membranes; settings: other: saturation of OAT2r-mediated uptake, 1 min

C[n+]1cccc(C(N)=O)c1 [1-methylnicotinamide]
transport by OAT2r (in words) (OAT2r [1]): no transport

Nc1ccccc1C(=O)O [2-aminobenzoic acid]
transport by OAT2r (in words) (OAT2r [1]): no transport
increase in OAT2r cell lysates versus control cells (factor f) (OAT2r [2]): 1.1

CCN(CC)CCC(=O)O [3-(diethylamino)propionic acid]
increase in OAT2r cell lysates versus control cells (factor f) (OAT2r [2]): 1.1

Nc1cccc(C(=O)O)c1 [3-aminobenzoic acid]
transport by OAT2r (in words) (OAT2r [1]): no transport
increase in OAT2r cell lysates versus control cells (factor f) (OAT2r [2]): 1.4

NC(=O)CC[C@H](N)C(=O)O [3H-glutamine, glutamine]
uptake by OAT2h (in words) (OAT2h): no uptake

Nc1ccc(C(=O)O)cc1 [4-aminobenzoic acid]
transport by OAT2r (in words) (OAT2r [1]): no transport
increase in OAT2r cell lysates versus control cells (factor f) (OAT2r [2]): 1.1

NCC(=O)CCC(=O)O [5-aminolevulinic acid]
transport by OAT2r (in words) (OAT2r [1]): no transport

O=C(O)c1[nH]c(=O)[nH]c(=O)c1F [5-fluoroorotic acid]
transport by OAT2r (in words) (OAT2r [1]): transported efficiently

O=C1CC[C@@H](C(=O)O)N1 [5-oxoproline]
transport by OAT2r (in words) (OAT2r [1]): no transport

C[N+](C)(C)C[C@H](O)CC(=O)[O-] [L-carnitine]
increase in OAT2r cell lysates versus control cells (factor f) (OAT2r [2]): 1.0

O=C1C[C@@H](C(=O)O)NC(=O)N1 [L-dihydroorotic acid]
transport by OAT2r (in words) (OAT2r [1]): no transport

O=C(O)[C@@H]1CCCN1 [L-proline]
transport by OAT2r (in words) (OAT2r [1]): no transport

O=C(O)c1cccnc1C(=O)O [Quinolinic acid]
increase in OAT2r cell lysates versus control cells (factor f) (OAT2r [2]): 2.7
difference in lysate content between OAT2r and control cells (in words) (OAT2r [2]; up to 1 h incubation time): virtually no difference

O=C1CC(=O)NC(=O)N1 [barbituric acid]
transport by OAT2r (in words) (OAT2r [1]): no transport

CN(CC(=O)O)C(=N)N [creatine]
transport by OAT2r (in words) (OAT2r [1]): no transport

CC1=NCC[C@@H](C(=O)O)N1 [ectoine]
increase in OAT2r cell lysates versus control cells (factor f) (OAT2r [2]): 1.2

NCC1(CC(=O)O)CCCCC1 [gabapentin]
increase in OAT2r cell lysates versus control cells (factor f) (OAT2r [2]): 1.2

C[N+](C)(C)CC(=O)[O-] [glycine betaine]
increase in OAT2r cell lysates versus control cells (factor f) (OAT2r [2]): 1.0

N=C(N)NCC(=O)O [guanidinoacetic acid]
transport by OAT2r (in words) (OAT2r [1]): no transport

O=C(O)CC1NC(=O)NC1=O (stereo not shown) [hydantoin-5-acetic acid]
transport by OAT2r (in words) (OAT2r [1]): no transport

O=C(O)c1c[nH]c(=O)[nH]c1=O [isoorotic acid]
transport by OAT2r (in words) (OAT2r [1]): transported efficiently

O=C(O)c1cc(=O)c2ccccc2[nH]1 [kynurenic acid]
transport by OAT2r (in words) (OAT2r [1]): no transport

CC(O)C(=O)O (stereo not shown) [lactate]
trans-stimulation of efflux of 3H-orotic acid (in words) (OAT2r [3]): rejects

O=C(O)CC(O)C(=O)O (stereo not shown) [malate]
trans-stimulation of efflux of 3H-orotic acid (in words) (OAT2r [3]): rejects

NC(=O)c1cccnc1 [nicotinamide]
transport by OAT2r (in words) (OAT2r [1]): no transport
increase in OAT2r cell lysates versus control cells (factor f) (OAT2r [2]): no significant increase

O=C(O)c1ccc[n+]([C@@H]2O[C@H](COP(=O)(O)O)[C@@H](O)[C@H]2O)c1 [nicotinic acid mononucleotide]
transport by OAT2r (in words) (OAT2r [1]): no transport

O=C([O-])c1ccc[n+]([C@@H]2O[C@H](CO)[C@@H](O)[C@H]2O)c1 [nicotinic acid riboside]
transport by OAT2r (in words) (OAT2r [1]): transported slightly more efficiently than trigonelline

O=C(O)c1cccnc1 [nicotinic acid]
transport by OAT2r (in words) (OAT2r [1]): no transport
increase in OAT2r cell lysates versus control cells (factor f) (OAT2r [2]): no significant increase

Cc1cc2nc3c(=O)[nH]c(=O)nc-3n(C[C@H](O)[C@H](O)[C@H](O)CO)c2cc1C [riboflavin]
transport by OAT2r (in words) (OAT2r [1]): no transport
increase in OAT2r cell lysates versus control cells (factor f) (OAT2r [2]): 1.2

C[N+]1(C)CCC[C@H]1C(=O)[O-] [stachydrine]
transport by OAT2r (in words) (OAT2r [1]): no transport
increase in OAT2r cell lysates versus control cells (factor f) (OAT2r [2]): 1.2

Cc1ncc(C[n+]2csc(CCO)c2C)c(N)n1 [thiamine]
transport by OAT2r (in words) (OAT2r [1]): no transport

B1: OAT2r (Rattus norvegicus) (protein)
chain: MGFEDLLDKVGGFGPFQLRNLVLMALPRMLLPMHFLLPVFMAAVPAHHCALPGAPANLSHQDLWLEAHLPRETDGSFSSCLRFAYPQTVPNVTLGTEVSNSGEPEGEPLTVPCSQGWEYDRSEFSSTIATEWDLVCQQRGLNKITSTCFFIGVLVGAVVYGYLSDRFGRRRLLLVAYVSSLVLGLMSAASINYIMFVVTRTLTGSALAGFTIIVLPLELEWLDVEHRTVAGVISTVFWSGGVLLLALVGYLIRSWRWLLLAATLPCVPGIISIWWVPESARWLLTQGRVEEAKKYLLSCAKLNGRPVGEGSLSQEALNNVVTMERALQRPSYLDLFRTSQLRHISLCCMMVWFGVNFSYYGLTLDVSGLGLNVYQTQLLFGAVELPSKIMVYFLVRRLGRRLTEAGMLLGAALTFGTSLLVSLETKSWITALVVVGKAFSEAAFTTAYLFTSELYPTVLRQTGLGLTALMGRLGASLAPLAALLDGVWLLLPKVAYGGIALVAACTALLLPETKKAQLPETIQDVERKSTQEEDV
Km [4]: 200 (95% confidence interval: 160-240) μmol/l
